ChEMBL document CHEMBL1138452, “1-Sulfonylindazoles as potent and selective 5-HT6 ligands” (Bioorg Med Chem Lett, 2009)
Active and inactive are the calls of the source. The rule behind the calls is not given here.

Tests used:
[1] = biological target: T1, 5-hydroxytryptamine receptor 6 (Homo sapiens, UniProt P50406); test: Antagonist activity at human cloned 5HT6 receptor expressed in human HeLa cells assessed as blockage of 5-HT-stimulated cAMP formation; format: functional, cell-based
[2] = biological target: T1, 5-hydroxytryptamine receptor 6; test: Agonist activity at human 5HT6 receptor expressed in CHOK1 cells assessed as increase in 5HT-induced intracellular calcium level at 0.1 to 10 uM by FLIPR assay; format: functional, cell-based; conditions: CHO-K1
[3] = biological target: T1, 5-hydroxytryptamine receptor 6; test: Displacement of [3H]LSD from human cloned 5HT6 receptor expressed in human HeLa cells; format: cell-based
[4] = Metabolic stability in human microsomes assessed as half life; format: ADME, Microsome
[5] = Metabolic stability in rat microsomes assessed as half life; format: ADME, Microsome
Cytochrome P450 3A4 = Cytochrome P450 3A4 (Homo sapiens, UniProt P08684); test: Inhibition of CYP3A4; format: ADME
Sequence of Cytochrome P450 3A4 (P08684 whole entry): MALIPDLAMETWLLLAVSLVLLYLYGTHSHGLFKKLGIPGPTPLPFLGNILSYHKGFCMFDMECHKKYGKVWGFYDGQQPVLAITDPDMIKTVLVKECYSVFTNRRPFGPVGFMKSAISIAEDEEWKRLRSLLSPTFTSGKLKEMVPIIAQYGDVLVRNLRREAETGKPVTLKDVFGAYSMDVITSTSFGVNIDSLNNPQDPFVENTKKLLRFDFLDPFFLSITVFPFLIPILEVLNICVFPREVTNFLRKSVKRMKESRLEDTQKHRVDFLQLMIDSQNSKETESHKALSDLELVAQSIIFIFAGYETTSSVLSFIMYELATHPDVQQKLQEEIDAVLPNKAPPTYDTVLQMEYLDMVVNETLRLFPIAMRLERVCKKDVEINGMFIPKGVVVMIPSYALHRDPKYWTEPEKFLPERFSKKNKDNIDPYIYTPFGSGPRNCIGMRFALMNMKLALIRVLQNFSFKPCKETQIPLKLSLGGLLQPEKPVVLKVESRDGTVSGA

Cytochrome P450 2D6 = Cytochrome P450 2D6 (Homo sapiens, UniProt P10635); test: Inhibition of CYP2D6; format: ADME
Sequence of Cytochrome P450 2D6 (P10635 whole entry): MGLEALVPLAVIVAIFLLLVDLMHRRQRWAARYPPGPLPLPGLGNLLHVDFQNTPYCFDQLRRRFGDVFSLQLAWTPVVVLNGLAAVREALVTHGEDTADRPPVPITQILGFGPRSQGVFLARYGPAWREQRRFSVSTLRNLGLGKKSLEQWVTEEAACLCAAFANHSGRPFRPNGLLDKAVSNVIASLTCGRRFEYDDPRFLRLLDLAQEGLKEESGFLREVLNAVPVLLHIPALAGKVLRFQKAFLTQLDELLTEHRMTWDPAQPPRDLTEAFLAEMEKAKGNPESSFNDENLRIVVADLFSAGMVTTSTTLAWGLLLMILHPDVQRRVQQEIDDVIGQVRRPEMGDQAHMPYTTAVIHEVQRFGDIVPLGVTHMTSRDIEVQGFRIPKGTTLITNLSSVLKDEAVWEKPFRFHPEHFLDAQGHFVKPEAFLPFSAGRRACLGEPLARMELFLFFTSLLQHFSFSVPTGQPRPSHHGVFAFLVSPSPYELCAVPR

Cytochrome P450 2C9 = Cytochrome P450 2C9 (Homo sapiens, UniProt P11712); test: Inhibition of CYP2C9; format: ADME
Sequence of Cytochrome P450 2C9 (P11712 whole entry): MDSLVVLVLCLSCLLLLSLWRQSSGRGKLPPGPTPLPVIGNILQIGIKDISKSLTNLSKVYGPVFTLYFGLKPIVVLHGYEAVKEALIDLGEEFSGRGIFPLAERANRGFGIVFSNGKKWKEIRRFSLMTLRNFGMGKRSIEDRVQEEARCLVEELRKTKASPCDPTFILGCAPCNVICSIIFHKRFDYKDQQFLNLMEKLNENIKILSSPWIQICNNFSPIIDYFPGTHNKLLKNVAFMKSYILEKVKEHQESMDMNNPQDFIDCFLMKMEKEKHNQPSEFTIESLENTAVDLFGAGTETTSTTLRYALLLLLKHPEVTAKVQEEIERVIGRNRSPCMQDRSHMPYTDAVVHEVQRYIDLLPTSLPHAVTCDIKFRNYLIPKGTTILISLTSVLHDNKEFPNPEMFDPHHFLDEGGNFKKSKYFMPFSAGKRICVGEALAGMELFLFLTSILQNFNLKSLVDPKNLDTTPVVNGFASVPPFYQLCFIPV

[6] = Oral bioavailability in Sprague-Dawley rat at 10 mg/kg; format: ADME, organism-based; conditions: in vivo
[7] = biological target: T2, 5-hydroxytryptamine receptor 1A (Homo sapiens, UniProt P08908); test: Binding affinity to 5HT1a receptor
T2 sequence (P08908 whole entry): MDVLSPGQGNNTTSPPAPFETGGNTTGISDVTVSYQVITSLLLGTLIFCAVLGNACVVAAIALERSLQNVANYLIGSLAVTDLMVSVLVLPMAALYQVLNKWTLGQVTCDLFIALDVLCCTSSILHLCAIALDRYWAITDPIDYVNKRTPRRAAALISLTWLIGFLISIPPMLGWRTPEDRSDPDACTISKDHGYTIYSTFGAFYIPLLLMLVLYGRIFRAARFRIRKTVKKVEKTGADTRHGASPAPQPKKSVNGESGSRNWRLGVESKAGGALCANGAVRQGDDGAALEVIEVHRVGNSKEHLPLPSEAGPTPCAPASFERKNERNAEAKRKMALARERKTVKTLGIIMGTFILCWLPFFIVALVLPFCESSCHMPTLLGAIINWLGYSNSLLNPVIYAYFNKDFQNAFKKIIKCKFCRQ

[8] = biological target: 5-hydroxytryptamine receptor 1B (Homo sapiens, UniProt P28222); test: Binding affinity to 5HT1b receptor
Sequence of 5-hydroxytryptamine receptor 1B (P28222 whole entry): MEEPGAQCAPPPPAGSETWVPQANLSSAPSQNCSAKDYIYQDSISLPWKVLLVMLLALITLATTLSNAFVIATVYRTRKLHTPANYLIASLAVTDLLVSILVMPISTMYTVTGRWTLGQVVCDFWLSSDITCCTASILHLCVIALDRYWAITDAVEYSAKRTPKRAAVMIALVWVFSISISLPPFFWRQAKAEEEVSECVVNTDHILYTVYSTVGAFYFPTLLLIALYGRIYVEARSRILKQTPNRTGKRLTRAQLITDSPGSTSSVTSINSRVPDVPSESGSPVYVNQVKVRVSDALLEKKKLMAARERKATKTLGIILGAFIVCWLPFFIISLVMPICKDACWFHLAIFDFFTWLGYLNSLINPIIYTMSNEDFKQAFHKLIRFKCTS

[9] = biological target: 5-hydroxytryptamine receptor 1D (Homo sapiens, UniProt P28221); test: Binding affinity to 5HT1d receptor
Sequence of 5-hydroxytryptamine receptor 1D (P28221 whole entry): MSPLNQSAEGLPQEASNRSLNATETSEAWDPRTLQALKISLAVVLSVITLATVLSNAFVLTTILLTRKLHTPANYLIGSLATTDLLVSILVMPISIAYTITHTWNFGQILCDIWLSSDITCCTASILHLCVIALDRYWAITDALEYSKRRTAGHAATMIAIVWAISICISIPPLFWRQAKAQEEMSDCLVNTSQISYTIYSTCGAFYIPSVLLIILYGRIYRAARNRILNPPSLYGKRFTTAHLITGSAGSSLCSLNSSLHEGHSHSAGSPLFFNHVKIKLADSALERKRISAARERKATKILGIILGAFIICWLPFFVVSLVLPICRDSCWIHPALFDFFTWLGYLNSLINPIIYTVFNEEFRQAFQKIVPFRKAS

[10] = biological target: 5-hydroxytryptamine receptor 2B (Homo sapiens, UniProt P41595); test: Binding affinity to 5HT2b receptor
Sequence of 5-hydroxytryptamine receptor 2B (P41595 whole entry): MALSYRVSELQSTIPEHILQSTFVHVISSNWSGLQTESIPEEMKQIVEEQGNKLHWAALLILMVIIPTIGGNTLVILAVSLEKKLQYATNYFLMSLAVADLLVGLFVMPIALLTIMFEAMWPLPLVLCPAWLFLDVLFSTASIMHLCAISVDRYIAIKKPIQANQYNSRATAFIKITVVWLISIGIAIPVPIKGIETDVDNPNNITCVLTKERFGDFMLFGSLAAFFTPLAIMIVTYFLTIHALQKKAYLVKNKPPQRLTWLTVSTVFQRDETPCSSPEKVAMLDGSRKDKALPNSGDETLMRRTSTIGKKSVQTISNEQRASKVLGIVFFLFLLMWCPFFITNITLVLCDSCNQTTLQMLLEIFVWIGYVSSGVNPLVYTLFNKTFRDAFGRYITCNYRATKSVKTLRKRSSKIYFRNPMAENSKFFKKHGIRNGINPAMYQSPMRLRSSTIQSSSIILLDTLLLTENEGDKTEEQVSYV

[11] = biological target: T3, 5-hydroxytryptamine receptor 2C (Homo sapiens, UniProt P28335); test: Binding affinity to 5HT2c receptor
T3 sequence (P28335 whole entry): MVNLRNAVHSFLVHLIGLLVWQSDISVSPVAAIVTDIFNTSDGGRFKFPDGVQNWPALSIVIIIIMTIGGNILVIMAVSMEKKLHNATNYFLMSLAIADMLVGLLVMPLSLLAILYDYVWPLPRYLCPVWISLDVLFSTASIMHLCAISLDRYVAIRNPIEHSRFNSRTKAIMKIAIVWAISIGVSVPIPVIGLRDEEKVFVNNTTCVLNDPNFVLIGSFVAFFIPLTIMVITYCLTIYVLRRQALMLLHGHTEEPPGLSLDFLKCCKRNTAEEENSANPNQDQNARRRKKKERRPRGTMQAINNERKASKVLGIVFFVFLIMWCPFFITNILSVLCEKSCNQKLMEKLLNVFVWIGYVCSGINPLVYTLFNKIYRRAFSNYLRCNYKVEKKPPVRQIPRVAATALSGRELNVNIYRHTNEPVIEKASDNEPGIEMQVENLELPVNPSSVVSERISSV

[12] = biological target: 5-hydroxytryptamine receptor 7 (Homo sapiens, UniProt P34969); test: Binding affinity to 5HT7 receptor
Sequence of 5-hydroxytryptamine receptor 7 (P34969 whole entry): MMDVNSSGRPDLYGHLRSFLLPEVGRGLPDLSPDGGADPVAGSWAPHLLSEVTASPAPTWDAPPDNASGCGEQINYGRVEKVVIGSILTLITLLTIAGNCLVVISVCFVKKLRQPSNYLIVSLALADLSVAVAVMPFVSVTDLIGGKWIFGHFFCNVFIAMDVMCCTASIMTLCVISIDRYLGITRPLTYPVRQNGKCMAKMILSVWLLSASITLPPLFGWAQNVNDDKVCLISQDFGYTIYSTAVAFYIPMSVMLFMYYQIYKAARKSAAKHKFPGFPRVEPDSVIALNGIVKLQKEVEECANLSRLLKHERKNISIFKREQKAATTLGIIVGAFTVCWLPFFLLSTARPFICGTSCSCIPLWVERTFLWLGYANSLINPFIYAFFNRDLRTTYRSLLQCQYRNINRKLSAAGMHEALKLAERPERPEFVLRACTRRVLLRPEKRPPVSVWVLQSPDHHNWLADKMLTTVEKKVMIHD

[13] = biological target: T4, Alpha-2A adrenergic receptor (Homo sapiens, UniProt P08913); test: Binding affinity to adrenergic alpha2A receptor
T4 sequence (P08913 whole entry): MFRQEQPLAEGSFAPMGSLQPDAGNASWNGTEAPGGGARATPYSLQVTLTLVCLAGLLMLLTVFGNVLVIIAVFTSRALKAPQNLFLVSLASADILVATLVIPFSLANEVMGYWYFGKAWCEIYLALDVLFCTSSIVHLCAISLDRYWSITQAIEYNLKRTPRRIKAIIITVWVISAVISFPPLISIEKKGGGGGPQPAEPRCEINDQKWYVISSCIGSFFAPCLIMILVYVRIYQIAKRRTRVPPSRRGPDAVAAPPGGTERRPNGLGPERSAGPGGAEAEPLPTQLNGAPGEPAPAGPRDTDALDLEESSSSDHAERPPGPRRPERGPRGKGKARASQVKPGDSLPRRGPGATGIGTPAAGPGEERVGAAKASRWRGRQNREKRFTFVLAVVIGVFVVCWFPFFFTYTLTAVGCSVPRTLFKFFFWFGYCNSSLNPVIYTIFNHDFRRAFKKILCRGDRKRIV

D(2) dopamine receptor = D(2) dopamine receptor (Homo sapiens, UniProt P14416); test: Binding affinity to dopamine D2 receptor
Sequence of D(2) dopamine receptor (P14416 whole entry): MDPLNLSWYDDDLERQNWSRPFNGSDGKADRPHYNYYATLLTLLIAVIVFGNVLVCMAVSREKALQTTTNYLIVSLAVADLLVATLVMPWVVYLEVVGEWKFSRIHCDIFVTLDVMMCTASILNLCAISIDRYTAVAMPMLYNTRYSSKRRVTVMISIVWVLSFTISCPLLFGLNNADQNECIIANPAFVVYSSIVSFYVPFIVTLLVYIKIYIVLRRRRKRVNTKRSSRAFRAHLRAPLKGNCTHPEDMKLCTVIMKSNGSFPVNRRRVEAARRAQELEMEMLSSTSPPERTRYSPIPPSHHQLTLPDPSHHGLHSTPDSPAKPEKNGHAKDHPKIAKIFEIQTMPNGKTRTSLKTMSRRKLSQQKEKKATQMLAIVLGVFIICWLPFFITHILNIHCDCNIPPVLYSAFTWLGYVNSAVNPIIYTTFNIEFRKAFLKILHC

Rattus norvegicus = test: Cognitive enhancing effect in Sprague-Dawley rat assessed as reversal of 24 hrs delay-induced retention deficit behavior at 10 mg/kp, po by novel object recognition assay; format: functional, organism-based

T1 sequence (P50406 whole entry): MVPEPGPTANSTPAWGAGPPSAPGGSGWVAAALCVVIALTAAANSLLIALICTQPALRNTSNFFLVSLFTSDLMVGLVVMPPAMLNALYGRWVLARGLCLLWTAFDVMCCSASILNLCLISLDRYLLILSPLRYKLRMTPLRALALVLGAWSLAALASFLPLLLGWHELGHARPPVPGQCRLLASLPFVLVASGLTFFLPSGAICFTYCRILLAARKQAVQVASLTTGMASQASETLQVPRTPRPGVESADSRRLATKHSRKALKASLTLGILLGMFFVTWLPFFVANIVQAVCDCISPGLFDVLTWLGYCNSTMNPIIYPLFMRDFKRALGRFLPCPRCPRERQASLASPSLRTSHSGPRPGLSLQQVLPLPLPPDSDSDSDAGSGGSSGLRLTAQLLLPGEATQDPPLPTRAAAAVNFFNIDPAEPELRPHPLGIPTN

CN(C)CCC(=O)Nc1ccc2cnn(S(=O)(=O)c3cccc4ccccc34)c2c1
IC50 [1]: 53 nM
Imax [1]: 100%

O=C(CCN1CCCCC1)Nc1ccc2cnn(S(=O)(=O)c3cccc4ccccc34)c2c1
IC50 [1]: 170 nM
Imax [1]: 100%

NCCC(=O)Nc1ccc2cnn(S(=O)(=O)c3cccc4ccccc34)c2c1
Activity [2]: inactive

O=C(Nc1ccc2cnn(S(=O)(=O)c3cccc4ccccc34)c2c1)[C@@H]1CCCNC1
Ki [3]: 4 nM
Activity [1]: Active

O=C(Nc1ccc2cnn(S(=O)(=O)c3cccc4ccccc34)c2c1)C1CCNCC1
Activity [2]: inactive
half-life [4]: > 30 min
half-life [5]: 11 min
IC50 (Cytochrome P450 3A4): 61000 nM
IC50 (Cytochrome P450 2D6): 350000 nM
IC50 (Cytochrome P450 2C9): 370000 nM
bioavailability [6]: 5%
IC50 [1]: 8 nM
Imax [1]: 100%
Ki [7]: 8500 nM
Ki [8]: > 2000 nM
Ki [9]: > 2000 nM
Ki [10]: 130 nM
Ki [11]: > 2000 nM
Ki [12]: 6900 nM
Ki [13]: > 2000 nM
Ki (D(2) dopamine receptor): > 2000 nM

O=C(Nc1ccc2cnn(S(=O)(=O)c3cccc4ccccc34)c2c1)[C@H]1CCCNC1
Ki [3]: 3.2 nM
Activity [1]: Active

CCN(CC)CCC(=O)Nc1ccc2cnn(S(=O)(=O)c3cccc4ccccc34)c2c1
IC50 [1]: 260 nM
Imax [1]: 100%

O=C(Nc1ccc2cnn(S(=O)(=O)c3cccc4ccccc34)c2c1)C1CCCNC1 (racemic)
Activity [2]: inactive
half-life [4]: > 30 min
half-life [5]: 8 min
IC50 (Cytochrome P450 3A4): 260000 nM
IC50 (Cytochrome P450 2D6): 110000 nM
IC50 (Cytochrome P450 2C9): 140000 nM
bioavailability [6]: 24%
Activity (Rattus norvegicus): Active
Ki [3]: 1.3 nM
IC50 [1]: 10 nM
Imax [1]: 100%
Ki [7]: 5600 nM
Ki [8]: 1800 nM
Ki [9]: > 2000 nM
Ki [10]: 174 nM
Ki [11]: > 2000 nM
Ki [12]: 5800 nM
Ki [13]: > 2000 nM
Ki (D(2) dopamine receptor): > 2000 nM

CNCCC(=O)Nc1ccc2cnn(S(=O)(=O)c3cccc4ccccc34)c2c1
IC50 [1]: 26 nM
Imax [1]: 100%

O=S(=O)(c1cccc2ccccc12)n1ncc2ccc(NCC3CCNCC3)cc21
Ki [3]: 18 nM

NCCC(=O)Nc1cccc2c1cnn2S(=O)(=O)c1cccc2ccccc12
half-life [4]: > 30 min
half-life [5]: 28 min
IC50 (Cytochrome P450 3A4): 30000 nM
IC50 (Cytochrome P450 2D6): 200000 nM
IC50 (Cytochrome P450 2C9): 7000 nM
bioavailability [6]: 7%
IC50 [1]: 11 nM
Imax [1]: 100%
Ki [7]: 6400 nM
Ki [8]: > 2000 nM
Ki [9]: > 2000 nM
Ki [10]: 155 nM
Ki [11]: > 2000 nM
Ki [12]: 5100 nM
Ki [13]: > 2000 nM
Ki (D(2) dopamine receptor): > 2000 nM
